Test results reported in patent publication US20260325654A1, “METHODS AND COMPOSITIONS FOR TARGETED PROTEIN DEGRADATION” (Ranok Therapeutics (Hangzhou) Co. Ltd., priority 2023, published 2026).
pIC50: −log10 of the molar value. Counter-ions that a name gives are not always drawn.

Assays:
AGS = assay: CellTiter-Glo Reagent cancer cell line proliferation assay, AGS; type: cell-based, human; settings: Homo sapiens, 24 h, KRAS(G12D) heterozygous
Outline: (§1)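 Cells were seeded at 4,000 per well, grown 24 hr at 37° C./5% CO2, then exposed 24 hr to 3-fold dilutions from 20 μM to 1.02 nM (0.5% DMSO final). Viability was read with CellTiter-Glo luminescence, and IC50 values were calculated.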

A427 = assay: CellTiter-Glo Reagent cancer cell line proliferation assay, A427; type: cell-based; settings: Homo sapiens, A-427; A427, KRAS(G12D) heterozygous, 24 hr
Description: (§2) The following cancer cell lines were employed: • AsPC-1 human pancreatic adenocarcinoma, homozygous KRAS(G12D), (ATCC, #CRL-1682); A-427 human lung carcinoma, heterozygous KRAS(G12D), (ATCC, #HTB-53); AGS human gastric adenocarcinoma, heterozygous KRAS(G12D), (ATCC, #CRL-1739); GP2D human colon adenocarcinoma, heterozygous KRAS(G12D), (Sigma Aldrich, 95090714); SW1990 human pancreatic adenocarcinoma, homozygous KRAS(G12D), (ATCC, #CRL2172); LU65A human lung giant cell carcinoma, heterozygous KRAS(G12C), (JCRB Cell Bank, #JCRB0054); NCIH727 human lung carcinoid, heterozygous KRAS(G12V), (ATCC, #CRL-5815); MKN1 human gastric adenosquamous carcinoma KRAS (wt), (JCRB Cell Bank, #JCRB0252). Cell lines were cultured according to ATCC, JCRB and Sigma Aldrich recommendations.
(§3) Cells were plated in 96-well tissue culture plates at 4,000 cells/well and incubated at 37° C./5% CO2 for 24 hr in 100 μl of media. 3-fold serial dilutions of each test compound were prepared ranging from 20 μM to 1.02 nM. Cells were then treated with test compounds at various concentrations with a final concentration of 0.5% DMSO/well, and then incubated at 37° C./5% CO2 for 24 hr. 100 μl of CellTiter-Glo® Reagent (Promega Corporation, Madison, WI) was added to each well and processed according manufacturer's protocol. Results were analyzed and IC50-values were calculated in GraphPad 7 software.

ASPC-1 = assay: CellTiter-Glo Reagent cancer cell line proliferation assay, ASPC-1; type: cell-based; settings: Homo sapiens, ASPC1; ASPC-1, KRAS(G12D) homozygous, 24 hr
Description: as §2, §3

KRAS(G12D)/SOS1 = molecular target: T1, KRAS(G12D)/SOS1 (Homo sapiens, UniProt P01116, G12D); assay: KRAS(G12D)/SOS1 Homogeneous Time-Resolved Fluorescence (HTRF) Assay; type: binding; settings: absence of GTP, 4° C., 3 hr
T1 construct: purchased Cisbio 63ADK000CB16PEG
T1 sequence (P01116 1-188 isoform P01116-2 G12D): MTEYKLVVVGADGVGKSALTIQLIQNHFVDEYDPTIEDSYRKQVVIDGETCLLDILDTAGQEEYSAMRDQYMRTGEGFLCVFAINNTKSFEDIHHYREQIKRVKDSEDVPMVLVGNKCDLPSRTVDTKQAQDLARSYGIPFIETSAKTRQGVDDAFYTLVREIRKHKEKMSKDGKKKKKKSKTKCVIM
Protocol: 3-fold serial dilutions of each test compound were prepared ranging from 20 μM to 1.02 nM. The test compound was mixed and incubated with reaction components, incubated in a sealed plate at 4° C. for 3 hr and fluorescence was measured using a PerkinElmer Envision plate reader. The % inhibition and IC50 values (the concentration at which 50% of the maximal inhibition occurs) were calculated and plotted using GraphPad Prism 7 software.

SW1990 = assay: CellTiter-Glo Reagent cancer cell line proliferation assay, SW1990; type: cell-based; settings: Homo sapiens; SW1990, KRAS(G12D) homozygous, 24 hr
Description: as §2, §3

KRAS(G12D) [1] = molecular target: T2, KRAS(G12D) (Homo sapiens, UniProt P01116, G12D); assay: cell-based; type: cell-based; set-up: Cell lines SW1990 and GP2D that express KRAS(G12D); host or cells: SW1990; settings: for Dmax: SW1990, read-out: WB data SW1990 DMax; for DC50: read-out: WB data SW1990 DC50, SW1990, KRAS degradation, 24 hr
Protocol: Cell lines were cultured according to ATCC, JCRB and Sigma Aldrich recommendations.
(§4) Cells were then washed with cold PBS, aspirated and cold RIPA buffer containing a protease/phosphatase inhibitor cocktail was added to lyse cells. After centrifugation, the total protein concentrations of cell lysates were determined using the BCA protein assay. Samples were normalized for equivalent protein concentrations, 5× SDS-PAGE loading buffer added and denatured at 100° C. for 10 min. 20 μl of each sample/well was loaded on a SDS-PAGE gel and electrophoresed for 20 min at 80 V, then 120 V for 1.5 hr. Gels were then electroblotted to nitrocellulose membranes using a wet-transfer method at 250 mA for 2.5 hr. Membranes were incubated with blocking buffer for 1 hr and washed 3 times with TBST for 5 min. Membranes were then incubated with anti-KRAS (Sigma-Aldrich, #SAB1404011) and anti-β-Actin monoclonal antibodies (Cell Signaling Technology, #3700) diluted in blocking buffer at 4° C. overnight per the manufacturer's recommendations. After washing 3 times, blots were incubated with appropriately labeled secondary antibodies for 1 hr at room temperature and washed again. Fluorescence imaging and quantitation was performed using a LI-COR Odyssey. Results was analyzed using GraphPad Prism 7 software. Compound concentrations that induced KRAS degradation (DC50 and DCmax) were calculated using GraphPad Prism 7 software.
Target sequence in this assay (P01116 1-188 isoform P01116-2 G12D): as above

GP2D = assay: CellTiter-Glo Reagent cancer cell line proliferation assay, GP2D; type: cell-based; settings: Homo sapiens, KRAS(G12D) heterozygous, 24 hr
Outline: as §1

KRAS(G12D) [2] = molecular target: T2, KRAS(G12D); assay: KRAS Western Blot Protein Degradation Assay, GP2D; type: cell-based; set-up: Cell lines SW1990 and GP2D that express KRAS(G12D); host or cells: GP2D; settings: for Dmax: GP2d, read-out: WB data GP2D DMax; for DC50: read-out: WB data GP2D DC50, GP2D, KRAS degradation, 24 hr
Description: as §2
as §4, with “Cell lines SW1990 and GP2D that express KRAS(G12D), LU65A that expresses KRAS(G12C), and NCIH727 that expresses KRAS(G12V) were seeded in 6- or 12-well tissue culture plates, and after 1 hr, test compounds were added at various concentrations and incubated at 37° C./5% CO2 for 24 hr. Cells” for “Cells”
Target sequence in this assay (P01116 1-185 isoform P01116-2 G12D limits assumed): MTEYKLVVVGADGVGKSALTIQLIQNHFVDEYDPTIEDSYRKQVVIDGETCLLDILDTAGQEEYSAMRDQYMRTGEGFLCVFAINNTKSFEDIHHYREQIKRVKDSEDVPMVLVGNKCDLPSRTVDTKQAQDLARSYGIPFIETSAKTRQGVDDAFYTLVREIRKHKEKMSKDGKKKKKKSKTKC

pIC50 (AGS) | pIC50 (A427) | pIC50 (ASPC-1) | pIC50 (KRAS(G12D)/SOS1) | pIC50 (SW1990) | Dmax (KRAS(G12D) [1]) [%] | DC50 (KRAS(G12D) [1]) [nM] | pIC50 (GP2D) | Dmax (KRAS(G12D) [2]) [%] | DC50 (KRAS(G12D) [2]) [nM] | SMILES
< 6.00 | < 6.00 | – | > 7.00 | – | – | – | – | – | – | CN1C[C@H](N2CCC(C(=O)NCCOc3ccc4c(c3)C(=O)N(C3CCC(=O)NC3=O)C4=O)CC2)C[C@@H]1COc1nc(N2CC3CCC(C2)N3)c2cnc(-c3cc(O)cc4ccccc34)c(F)c2n1 (some centres unmarked) [Compound 23]
< 6.00 | < 6.00 | – | > 7.00 | – | – | – | – | – | – | C#Cc1cccc2cccc(-c3ncc4c(N5CC6CCC(C5)N6)nc(OC[C@H]5CC[C@@H](CN6CCN(CC7CCN(c8cc9c(cc8F)C(=O)C(N8CCC(=O)NC8=O)C9=O)CC7)CC6)N5C)nc4c3F)c12 (some centres unmarked) [Compound 25]
6.00 to 7.00 | 6.00 to 7.00 | 6.00 to 7.00 | > 7.00 | 6.00 to 7.00 | – | – | – | – | – | COc1nc(-c2cc(O)cc3ccccc23)c(F)c2nc(OCC3(CN4CCN(CC5CCN(c6ccc7c(c6)C(=O)N(C6CCC(=O)NC6=O)C7=O)CC5)CC4)CC3)nc(C3CC4CCC(C3)N4)c12 (centres unmarked) [Compound 36]
> 7.00 | 6.00 to 7.00 | – | > 7.00 | 6.00 to 7.00 | 10 to 50 | > 1000 | – | – | – | C#Cc1cccc2cc(O)cc(-c3ncc4c(N5CC6CCC(C5)N6)nc(OCC5(CN6CCN(CC7CCN(c8ccc9c(c8)C(=O)N(C8CCC(=O)N(C)C8=O)C9=O)CC7)CC6)CC5)nc4c3F)c12 (centres unmarked) [Compound 42]
> 7.00 | > 7.00 | > 7.00 | > 7.00 | > 7.00 | > 50 | < 100 | > 7.00 | – | – | C#Cc1c(F)ccc2cc(O)cc(-c3ncc4c(N5CC6CCC(C5)N6)nc(OCC5(CN6CCN(CC7CCN(c8ccc9c(c8)CN(C8CCC(=O)NC8=O)C9=O)CC7)CC6)CC5)nc4c3F)c12 (centres unmarked) [Compound 43]
> 7.00 | < 6.00 | 6.00 to 7.00 | – | 6.00 to 7.00 | – | – | – | – | – | C#Cc1cccc2cc(O)cc(-c3ncc4c(N5CC6CCC(C5)N6)nc(OCC5(CN6CCN(C(=O)C7CCN(c8ccc9c(c8)CN(C8CCC(=O)NC8=O)C9=O)CC7)CC6)CC5)nc4c3F)c12 (centres unmarked) [Compound 58]
> 7.00 | < 6.00 | 6.00 to 7.00 | > 7.00 | 6.00 to 7.00 | 10 to 50 | 100 to 1000 | > 7.00 | – | – | C#Cc1c(F)ccc2cc(O)cc(-c3nc(OC)c4c(N5CC6CCC(C5)N6C(=O)C(F)(F)F)nc(OCC5(CN6CCC(CN7CCN(c8ccc9c(c8)CN(C8CCC(=O)NC8=O)C9=O)CC7)CC6)CC5)nc4c3F)c12 (centres unmarked) [Compound 63]
> 7.00 | 6.00 to 7.00 | > 7.00 | > 7.00 | > 7.00 | > 50 | < 100 | > 7.00 | – | – | C#Cc1cccc2cc(O)cc(-c3ncc4c(N5CC6CCC(C5)N6)nc(OCC5(CN6CCN(CC7CCN(c8ccc9c(c8)n(C)c(=O)n9C8CCC(=O)NC8=O)CC7)CC6)CC5)nc4c3F)c12 (centres unmarked) [Compound 64]
> 7.00 | – | – | – | – | – | – | > 7.00 | > 50 | < 100 | C#Cc1c(F)ccc2cc(O)cc(-c3nc(OC)c4c(N5CC6CCC(C5)N6CC#N)nc(OCC5(CN6CCN(CC7CCN(c8ccc9c(c8)CN(C8CCC(=O)NC8=O)C9=O)CC7)CC6)CC5)nc4c3F)c12 (centres unmarked) [Compound 100, 2-(3-(2-((1-((4-((1-(2-(2,6-dioxopiperidin-3-yl)-1-oxoisoindolin-5-yl)piperidin-4-yl)methyl)piperazin-1-yl)methyl)cyclopropyl)methoxy)-7-(8-ethynyl-7-fluoro-3-hydroxynaphthalen-1-yl)-8-fluoro-5-methoxypyrido[4,3-d]pyrimidin-4-yl)-3,8-diazabicyclo[3.2.1]octan-8-yl) acetonitrile formate]
> 7.00 | – | – | – | – | – | – | > 7.00 | > 50 | < 100 | C#Cc1c(F)ccc2cc(O)cc(-c3ncc4c(N5CC6CCC(C5)N6CC#N)nc(OCC5(CN6CCN(CC7CCN(c8ccc9c(c8)CN(C8CCC(=O)NC8=O)C9=O)CC7)CC6)CC5)nc4c3F)c12 (centres unmarked) [Compound 101]

SMILES | pIC50 (AGS) | pIC50 (A427) | pIC50 (ASPC-1) | pIC50 (KRAS(G12D)/SOS1) | pIC50 (SW1990) | Dmax (KRAS(G12D) [1]) [%] | DC50 (KRAS(G12D) [1]) [nM] | pIC50 (GP2D) | Dmax (KRAS(G12D) [2]) [%] | DC50 (KRAS(G12D) [2]) [nM]
O=C1CCC(N2C(=O)c3ccc(CN4CCN([C@H]5CN6CCCC6(COc6nc(N7CC8CCC(C7)N8)c7cnc(-c8cc(O)cc9ccccc89)c(F)c7n6)C5)CC4)cc3C2=O)C(=O)N1 (some centres unmarked) [Compound 20] | < 6.00 | < 6.00 | < 6.00 | – | – | – | – | – | – | –
CN1C[C@H](N2CCC(C(=O)NCCOCCOc3ccc4c(c3)C(=O)N(C3CCC(=O)NC3=O)C4=O)CC2)C[C@@H]1COc1nc(N2CC3CCC(C2)N3)c2cnc(-c3cc(O)cc4ccccc34)c(F)c2n1 (some centres unmarked) [Compound 24] | < 6.00 | < 6.00 | – | – | – | – | – | – | – | –
C#Cc1cccc2cccc(-c3ncc4c(N5CC6CCC(C5)N6)nc(OC[C@H]5C[C@@H](N6CCN(CC7CCC(Nc8ccc9c(c8)C(=O)N(C8CCC(=O)NC8=O)C9=O)CC7)CC6)CN5C)nc4c3F)c12 (some centres unmarked) [Compound 47] | < 6.00 | < 6.00 | < 6.00 | – | < 6.00 | – | – | – | – | –
C#Cc1cccc2cc(O)cc(-c3ncc4c(N5CC6CCC(C5)N6C(=O)C(F)(F)F)nc(OCC5(CN6CCN(CC7CCN(c8ccc9c(c8)CN(C8CCC(=O)NC8=O)C9=O)CC7)CC6)CC5)nc4c3F)c12 (centres unmarked) [Compound 57] | > 7.00 | 6.00 to 7.00 | 6.00 to 7.00 | – | 6.00 to 7.00 | 10 to 50 | > 1000 | – | – | –
